The results in this text go back to patent US8642013B2, “Nano-scale contrast agents and methods of use” (priority 2008, dated 2014).

This data set can be described thus: blood concentration and clearance after injection in tumor-bearing rats. The format is in vivo, Fischer female rats. As to conditions: high iodine dose (1,344 mgl/mL). As to the method:
Contrast-enhanced mammography was performed with a commercial digital mammography system (Senographe 2000D, GE Healthcare) at 49 kVp and 63 mAs with a rhodium target and an extra copper filter of 0.3 mm thickness. These settings were used to shape the x-rays to have optimal energies for iodine. […] Initial studies were performed with high doses of the nano-probe to obtain a vascular image. A pre-contrast image (FIG. 2(a)) and post-contrast images were acquired 1, 5, 10, and 15 minutes after tail vein injection of the nano-probe. […] In the case of an adult human, this would correspond to a dose of about 654 mL of the nano-probe (assuming a blood volume of five liters), which is prohibitively large for use in humans. However, this high dose was used to clearly visualize the blood vessels that the mammography system was capable of detecting.
Another control group was injected with a conventional iodinated agent (iohexol) at an iodine dose equivalent to the high dose of 1,344 mgl/mL of the nano-probe. (See FIG. 7). […] (See FIG. 8).

Turning to `CC(=O)N(CC(O)CO)c1c(I)c(C(=O)NCC(O)CO)c(I)c(C(=O)NCC(O)CO)c1I` (stereo not shown) [iohexol], the clearance entry is “rapidly cleared via the kidneys”.
